Test system: MIA PaCa-2 cells
Assay: Gemcitabine treatment, cell viability by CCK-8 assay
Assay type: cell-based, human
Settings: method says 20 μM for 48 hr
Protocol: Gemcitabine Treatment Cells were seeded in 96-well plates at a density of 10^4 cells/well. […] Cell viability was accessed by CCK-8 assay following the manufacturer's instructions. Briefly, a mixture of 10 μL of CCK-8 and 190 μL media was added into each well, and the cells were incubated for another 1 hr. The absorbance of each well was measured at 450 nm using a microplate reader. Each experiment was performed in 6 repeats.

Structure (SMILES): Nc1ccn([C@@H]2O[C@H](CO)[C@@H](O)C2(F)F)c(=O)n1 [gemcitabine]
- viability of malignant MIA PaCa-2 cells with vs without gemcitabine treatment: dramatic decrease in viability

Source: patent US12529700B2, “Methods for identifying cancer” (NDSU Research Foundation, priority 2021, dated 2026)
